Measured values as given in patent publication US20260028354A1, “TETRAHYDRONAPHTHALENE DERIVATIVES AS ESTROGEN RECEPTOR DEGRADERS” (REGENT OF THE UNIVERSITY OF MICHIGAN, priority 2022, published 2026).
Like-named read-outs stand apart in the source and are kept apart here.

What was measured:
[1] = Cell growth assay (WST-8) for "B" compounds; format: cell-based; settings: T47D, read-out: Cell growth Inhibition in T47D cell line IC50
Protocol: Cell Growth Assay. The cells were seeded at 1500/well in 96 well plates overnight. One day after the seeding, they were treated with indicated doses of compounds respectively, 4 days after the compound treatment, 10% WST-8 reagent was added to the culture medium and incubate in a CO2 incubator at 37° C. for 2.5 hours. Before reading, the plate was mixed gently on an orbital shaker for one minute to ensure homogeneous distribution of color. The absorbance was measured of each sample using a microplate reader at a wavelength of 450 nm. The relative absorbance was calculated against the vehicle control from three individually repeats.

[2] = Western blot analysis for "B" compounds; format: cell-based; settings: read-out: Traditional Western Degradation Potency (DC50)
In short: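 Compound-treated cells lysed in RIPA buffer with protease inhibitors; equal protein (BCA) run on 10% SDS-PAGE, transferred to PVDF and probed with target antibodies. Band intensities quantified by densitometry and normalized to GAPDH.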

DC50 [2] [nM]	SMILES	IC50 [1] [nM]	IC50 ([1]; T47D cell line) [nM]
10 to 100	O=C1CCC(N2C(=O)c3cc4c(cc3C2=O)CN(CC(=O)N2CCC3(CC2)CCN(c2ccc([C@@H]5c6ccc(O)cc6CC[C@@H]5C5CCCCC5)cc2)CC3)C4)C(=O)N1 (mixture of isomers) [Compound B47, 6-(2-(9-(4-((1R,2R)-2-cyclohexyl-6-hydroxy-1,2,3,4-tetrahydronaphthalen-1-yl)phenyl)-3,9-diazaspiro[5.5]undecan-3-yl)-2-oxoethyl)-2-(2,6-dioxopiperidin-3-yl)-6,7-dihydropyrrolo[3,4-f]isoindole-1,3(2H,5H)-dione]		1 to 10
> 100	O=C1CCC(N2Cc3cc4c(cc3C2=O)NC(=O)[C@@H]2CN(CC3CCN(c5ccc([C@@H]6c7ccc(O)cc7CC[C@@H]6c6ccccc6)cc5)CC3)CCN42)C(=O)N1 (stereo partly drawn) [Compound B134, (4aS)-9-(2,6-dioxopiperidin-3-yl)-3-((1-(4-((1R,2S)-6-hydroxy-2-phenyl-1,2,3,4-tetrahydronaphthalen-1-yl)phenyl)piperidin-4-yl)methyl)-2,3,4,4a,9,10-hexahydropyrazino[1,2-a]pyrrolo[3,4-g]quinoxaline-5,8(1H,6H)-dione]		
> 100	O=C1CCC(N2C(=O)c3cc4c(cc3C2=O)CN(C2CCN(CC3CN(c5ccc([C@@H]6c7ccc(O)cc7CC[C@@H]6c6ccc(F)cc6)cc5)C3)CC2)C4)C(=O)N1 (stereo partly drawn) [Compound B69, 2-(2,6-dioxopiperidin-3-yl)-6-(1-((1-(4-((1R,2S)-2-(4-fluorophenyl)-6-hydroxy-1,2,3,4-tetrahydronaphthalen-1-yl)phenyl)azetidin-3-yl)methyl)piperidin-4-yl)-6,7-dihydropyrrolo[3,4-f]isoindole-1,3(2H,5H)-dione]		
> 100	CN(C1CCC(N2Cc3cc4c(cc3C2)C(=O)N(C2CCC(=O)NC2=O)C4=O)CC1)C1CCN(c2ccc([C@@H]3c4ccc(O)cc4CC[C@@H]3c3ccccc3)cc2)CC1 (stereo partly drawn) [Compound B88, 2-(2,6-dioxopiperidin-3-yl)-6-(4-((1-(4-((1R,2S)-6-hydroxy-2-phenyl-1,2,3,4-tetrahydronaphthalen-1-yl)phenyl)piperidin-4-yl)(methyl)amino)cyclohexyl)-6,7-dihydropyrrolo[3,4-f]isoindole-1,3(2H,5H)-dione]		
> 100	O=C1CCC(N2C(=O)c3cc4c(cc3C2=O)CN(CC(=O)NC2CCN(c3ccc([C@@H]5c6ccc(O)cc6CC[C@@H]5c5ccccc5)cc3)CC2)C4)C(=O)N1 (stereo partly drawn) [Compound B93, 2-(6-(2,6-dioxopiperidin-3-yl)-5,7-dioxo-3,5,6,7-tetrahydropyrrolo[3,4-f]isoindol-2(1H)-yl)-N-(1-(4-((1R,2S)-6-hydroxy-2-phenyl-1,2,3,4-tetrahydronaphthalen-1-yl)phenyl)piperidin-4-yl)acetamide]		
> 100	O=C1CCC(N2C(=O)c3cc4c(cc3C2=O)CN(c2ncc(CN3CC(Oc5ccc([C@@H]6c7ccc(O)cc7CC[C@@H]6c6ccccc6)cc5)C3)cn2)C4)C(=O)N1 (stereo partly drawn) [Compound B89, 2-(2,6-dioxopiperidin-3-yl)-6-(5-((3-(4-((1R,2S)-6-hydroxy-2-phenyl-1,2,3,4-tetrahydronaphthalen-1-yl)phenoxy)azetidin-1-yl)methyl)pyrimidin-2-yl)-6,7-dihydropyrrolo[3,4-f]isoindole-1,3(2H,5H)-dione]		
> 100	O=C1CCC(N2C(=O)c3cc4c(cc3C2=O)CN(C(=O)CN2CCC3(CC2)CCN(c2ccc([C@@H]5c6ccc(B(O)O)cc6CC[C@@H]5c5ccccc5)cc2)CC3)C4)C(=O)N1 (mixture of isomers) [Compound B51, ((5R,6S)-5-(4-(9-(2-(6-(2,6-dioxopiperidin-3-yl)-5,7-dioxo-3,5,6,7-tetrahydropyrrolo[3,4-f]isoindol-2(1H)-yl)-2-oxoethyl)-3,9-diazaspiro[5.5]undecan-3-yl)phenyl)-6-phenyl-5,6,7,8-tetrahydronaphthalen-2-yl)boronic acid]		
> 100	O=C1CCC(N2C(=O)c3cc4c(cc3C2=O)CN(C(=O)CN2CCC3(CC2)CCN(c2ccc([C@@H]5c6ccc(O)cc6CC[C@@H]5c5ccccc5)cc2F)C3)C4)C(=O)N1 (mixture of isomers) [Compound B33, 2-(2,6-dioxopiperidin-3-yl)-6-(2-(2-(2-fluoro-4-((1R,2S)-6-hydroxy-2-phenyl-1,2,3,4-tetrahydronaphthalen-1-yl)phenyl)-2,8-diazaspiro[4.5]decan-8-yl)acetyl)-6,7-dihydropyrrolo[3,4-f]isoindole-1,3(2H,5H)-dione]		
> 100	CN(c1ccc([C@@H]2c3ccc(O)cc3CC[C@@H]2c2ccccc2)cc1)C1CN([C@H]2CC[C@@H](C(=O)N3Cc4cc5c(cc4C3)C(=O)N(C3CCC(=O)NC3=O)C5=O)CC2)C1 (stereo partly drawn) [Compound B131, 2-(2,6-dioxopiperidin-3-yl)-6-((1S,4s)-4-(3-((4-((1R,2S)-6-hydroxy-2-phenyl-1,2,3,4-tetrahydronaphthalen-1-yl)phenyl)(methyl)amino)azetidin-1-yl)cyclohexane-1-carbonyl)-6,7-dihydropyrrolo[3,4-f]isoindole-1,3(2H,5H)-dione]		
> 100	CN(c1ccc([C@@H]2c3ccc(O)cc3CC[C@@H]2c2ccccc2)cc1)C1CN([C@H]2CC[C@H](C(=O)N3Cc4cc5c(cc4C3)C(=O)N(C3CCC(=O)NC3=O)C5=O)CC2)C1 (stereo partly drawn) [Compound B130, 2-(2,6-dioxopiperidin-3-yl)-6-((1R,4r)-4-(3-((4-((1R,2S)-6-hydroxy-2-phenyl-1,2,3,4-tetrahydronaphthalen-1-yl)phenyl)(methyl)amino)azetidin-1-yl)cyclohexane-1-carbonyl)-6,7-dihydropyrrolo[3,4-f]isoindole-1,3(2H,5H)-dione]		

More lines, now with the values behind:

SMILES	DC50 [2] [nM]	IC50 [1] [nM]	IC50 ([1]; T47D cell line) [nM]
O=C1CC[C@H](N2Cc3c(ccc4c3OC[C@H]3CN(C[C@@H]5COC6(CCN(c7ccc([C@@H]8c9ccc(O)cc9CC[C@@H]8c8ccccc8)cc7)CC6)C5)CCN43)C2=O)C(=O)N1 [Compound B396, (S)-3-((R)-7-(((R)-8-(4-((1R,2S)-6-hydroxy-2-phenyl-1,2,3,4-tetrahydronaphthalen-1-yl)phenyl)-1-oxa-8-azaspiro[4.5]decan-3-yl)methyl)-1-oxo-1,3,5,5a,6,7,8,9-octahydro-2H-pyrazino[1′,2′:4,5][1,4]oxazino[2,3-e]isoindol-2-yl)piperidine-2,6-dione]		< 1	
O=C1CC[C@H](N2Cc3cc4c(cc3C2=O)OCC2(CN(CC3CCN(c5ccc([C@@H]6c7ccc(O)cc7CC[C@@H]6c6ccccc6)cc5)CC3)C2)O4)C(=O)N1 [Compound B395, (S)-3-(1-((1-(4-((1R,2S)-6-hydroxy-2-phenyl-1,2,3,4-tetrahydronaphthalen-1-yl)phenyl)piperidin-4-yl)methyl)-6′-oxo-6′,8′-dihydro-3′H,7′H-spiro[azetidine-3,2′-[1,4]dioxino[2,3-f]isoindol]-7′-yl)piperidine-2,6-dione]			1 to 10
O=C1CCC(N2Cc3c(ccc4c3OC[C@H]3CN(C(=O)CN5CCN(c6ccc([C@@H]7c8ccc(O)cc8CC[C@@H]7c7ccccc7)cc6)CC5)CCN43)C2=O)C(=O)N1 (stereo partly drawn) [Compound B249, 3-((R)-7-(2-(4-(4-((1R,2S)-6-hydroxy-2-phenyl-1,2,3,4-tetrahydronaphthalen-1-yl)phenyl)piperazin-1-yl)acetyl)-1-oxo-1,3,5,5a,6,7,8,9-octahydro-2H-pyrazino[1′,2′:4,5][1,4]oxazino[2,3-e]isoindol-2-yl)piperidine-2,6-dione]		< 1	
O=C1CC[C@H](N2Cc3c(ccc4c3OC[C@H]3CN(C[C@H]5COC6(CCN(c7ccc([C@@H]8c9ccc(O)cc9CC[C@@H]8c8ccccc8)cc7)CC6)C5)CCN43)C2=O)C(=O)N1 [Compound B397, (S)-3-((R)-7-(((S)-8-(4-((1R,2S)-6-hydroxy-2-phenyl-1,2,3,4-tetrahydronaphthalen-1-yl)phenyl)-1-oxa-8-azaspiro[4.5]decan-3-yl)methyl)-1-oxo-1,3,5,5a,6,7,8,9-octahydro-2H-pyrazino[1′,2′:4,5][1,4]oxazino[2,3-e]isoindol-2-yl)piperidine-2,6-dione]		< 1	
O=C1CC[C@H](N2Cc3c(ccc4c3OC[C@H]3CN(CC5COC6(CCN(c7ccc([C@@H]8c9ccc(O)cc9CC[C@@H]8c8ccccc8)cc7)CC6)C5)CCN43)C2=O)C(=O)N1 (stereo partly drawn) [Compound B226, (3S)-3-((5aR)-7-((8-(4-((1R,2S)-6-hydroxy-2-phenyl-1,2,3,4-tetrahydronaphthalen-1-yl)phenyl)-1-oxa-8-azaspiro[4.5]decan-3-yl)methyl)-1-oxo-1,3,5,5a,6,7,8,9-octahydro-2H-pyrazino[1′,2′: 4,5][1,4]oxazino[2,3-e]isoindol-2-yl)piperidine-2,6-dione]		< 1	
O=C1CCC(N2Cc3c(ccc4c3OC[C@@H]3CN(C(=O)CN5CCN(c6ccc([C@@H]7c8ccc(O)cc8CC[C@@H]7c7ccccc7)cc6)CC5)CCN43)C2=O)C(=O)N1 (stereo partly drawn) [Compound B244, 3-((S)-7-(2-(4-(4-((1R,2S)-6-hydroxy-2-phenyl-1,2,3,4-tetrahydronaphthalen-1-yl)phenyl)piperazin-1-yl)acetyl)-1-oxo-1,3,5,5a,6,7,8,9-octahydro-2H-pyrazino[1′,2′:4,5][1,4]oxazino[2,3-e]isoindol-2-yl)piperidine-2,6-dione]		< 1	
O=C1CC[C@H](N2Cc3c(ccc4c3OC[C@H]3CN(CC5CC6(C5)CN(c5ccc([C@@H]7c8ccc(O)cc8CC[C@@H]7c7ccccc7)cc5)C6)CCN43)C2=O)C(=O)N1 [Compound B351, (S)-3-((R)-7-((2-(4-((1R,2S)-6-hydroxy-2-phenyl-1,2,3,4-tetrahydronaphthalen-1-yl)phenyl)-2-azaspiro[3.3]heptan-6-yl)methyl)-1-oxo-1,3,5,5a,6,7,8,9-octahydro-2H-pyrazino[1′,2′:4,5][1,4]oxazino[2,3-e]isoindol-2-yl)piperidine-2,6-dione]		1 to 10	
